System: IL-2 mRNA
Experiment: PHA-induced IL-2 mRNA expression in heparinized whole blood ex vivo
Format: cell-based, human
Settings: supplement 30 min, concentrations per footnote
Experimental: In this embodiment, phytohemagglutinin-induced gene expression of interleukin-2 (IL-2), interleukin-4 (IL-4), and tumor necrosis factor-α (TNF-α) were quantitated in the following manner. Fifty μL of heparinized whole blood was incubated with various dietary supplements for a period of 30 minutes. The following supplements were employed: vitamins A, C, and D, epigallocatechin gallate (from green tea), genistein (from soy), and curcumin (from the spice turmeric). Vitamin A is known to stimulate the immune system. […] Vitamin D appears to have protective effects against certain cancers. Epigallocatechin gallate is a powerful antioxidant, appears to reduce the multidrug resistance found in cancer cells, and preferentially induces apoptosis in neoplastic cells. Genistein has been found in some studies to have anticarcinogenic activity; possible mechanisms of action include upregulation of apoptosis, inhibition of angiogenesis, inhibition of DNA topoisomerase II and inhibition of protein tyrosine kinases. Curcumin has proapoptotic effects in neoplastic cells and interferes with the activity of the transcription factor NF-κB, which is often highly overexpressed in such cells.
After incubation with the dietary supplement, 100 μg/mL phytohemagglutinin (PHA) was added and incubation was continued for an additional 2 hours at 37° C. The concentration of each dietary supplement (see Table I, note) was slightly higher than reported blood levels. Then mRNA was purified, cDNA was synthesized, and the levels of IL-2, IL-4, and TNF-α were quantitated by TaqMan real time polymerase chain reaction (PCR) (see Holland, et al., “Detection of specific polymerase chain reaction product by utilizing the 5′ to 3′ exonuclease activity of Thermus aquaticus DNA polymerase,” Proc Natl Acad Sci USA 1991; 88: 7276-80), as described below.
The mRNA and cDNA were prepared from the whole blood that was exposed to the dietary components, as well as the whole blood which remained unexposed. In brief, home-made 96-well filterplates were placed over collection plates, and 150 μl 5 mM Tris, pH 7.4, was applied. Following centrifugation at 120×g for 1 min at 4° C., 50 μl of blood samples were applied to each well and immediately centrifuged at 120×g for 2 min at 4° C., followed by washing of each well with 300 μl PBS once with centrifugation at 2000×g for 5 min at 4° C. Then, 60 μl stock lysis buffer, containing for example 0.5% N-Lauroylsarcosine, 4×SSC, 10 mM Tris HCl, pH 7.4, 1 mM EDTA, 0.1% IGEPAL CA-630, and 1.791 M guanidine thiocyanate, supplemented with 1% 2-mercaptoethanol (Bio Rad, Hercules, Calif., USA), 0.5 mg/ml proteinase K (Pierce, Rockford, Ill., USA), 0.1 mg/ml salmon sperm DNA (5 Prime Eppendorf/Brinkmann, Westbury, N.Y., USA), 0.1 mg/ml E. coli tRNA (Sigma), a cocktail of 10 mM each of the specific reverse primers shown in Table 2, and standard RNA34 oligonucleotides, were applied to the filterplates, followed by incubation at 37° C. for 10 min. The filterplates were then placed over oligo(dT)-immobilized microplates (GenePlate, RNAture), and centrifuged at 2000×g for 5 min at 4° C. Following overnight storage at 4° C., the microplates were washed with 100 μl plain lysis buffer 3 times, followed by 150 μl of wash buffer (0.5 M NaCl, 10 mM Tris, pH 7.4, 1 mM EDTA) 3 times at 4° C. The cDNA was directly synthesized in each well by adding 30 μl of buffer containing 1×RT-buffer, 1.25 mM each of dNTP, 4 units rRNasin, and 80 units of MMLV reverse transcriptase (Promega) (without primers), and incubation at 37° C. for 2 hours. The specific primer-primed cDNA existed in solution, and oligo(dT)-primed cDNA stayed immobilized in the microplate. […]

CC1=C(/C=C/C(C)=C/C=C/C(C)=C/CO)C(C)(C)CCC1 [VA, vitamin A]
ΔΔCt (mean ± standard deviation, n = 3), IL-2 mRNA (Subject 1, then 100 μg/mL PHA 2 h 37° C., negative = increased expression): −0.98 ± 0.04
ΔΔCt (mean ± standard deviation, n = 3), IL-2 mRNA (Subject 2, then 100 μg/mL PHA 2 h): −1.61 ± 0.32
ΔΔCt (mean ± standard deviation, n = 3), IL-2 mRNA (Subject 3, then 100 μg/mL PHA 2 h): 0.49 ± 0.33
ΔΔCt (mean ± standard deviation, n = 3), IL-2 mRNA (Subject 4, then 100 μg/mL PHA 2 h): −0.29 ± 0.21
ΔΔCt (mean ± standard deviation, n = 3), IL-2 mRNA (Subject 5, then 100 μg/mL PHA 2 h): −1.16 ± 0.02
ΔΔCt (mean ± standard deviation, n = 3), IL-2 mRNA (Subject 6, then 100 μg/mL PHA 2 h): −0.26 ± 0.20
ΔΔCt (mean ± standard deviation, n = 3), IL-2 mRNA (Subject 7, then 100 μg/mL PHA 2 h): −0.66 ± 0.35

Reference: patent US20080206761A1, “Ex Vivo Gene Expression in Whole Blood as a Model of Assessment of Individual Variation to Dietary Supplements” (priority 2005, published 2008)
